Assay type in all cases: cell-based
The target of test [1] is protein kinases (human kinome) (Homo sapiens, UniProt O94804). The conditions noted are these: STK10 (O94804).
Test [2] deals with T1, protein kinases (human kinome) (Homo sapiens, UniProt Q8IVH8).
T1 sequence (Q8IVH8 1-894): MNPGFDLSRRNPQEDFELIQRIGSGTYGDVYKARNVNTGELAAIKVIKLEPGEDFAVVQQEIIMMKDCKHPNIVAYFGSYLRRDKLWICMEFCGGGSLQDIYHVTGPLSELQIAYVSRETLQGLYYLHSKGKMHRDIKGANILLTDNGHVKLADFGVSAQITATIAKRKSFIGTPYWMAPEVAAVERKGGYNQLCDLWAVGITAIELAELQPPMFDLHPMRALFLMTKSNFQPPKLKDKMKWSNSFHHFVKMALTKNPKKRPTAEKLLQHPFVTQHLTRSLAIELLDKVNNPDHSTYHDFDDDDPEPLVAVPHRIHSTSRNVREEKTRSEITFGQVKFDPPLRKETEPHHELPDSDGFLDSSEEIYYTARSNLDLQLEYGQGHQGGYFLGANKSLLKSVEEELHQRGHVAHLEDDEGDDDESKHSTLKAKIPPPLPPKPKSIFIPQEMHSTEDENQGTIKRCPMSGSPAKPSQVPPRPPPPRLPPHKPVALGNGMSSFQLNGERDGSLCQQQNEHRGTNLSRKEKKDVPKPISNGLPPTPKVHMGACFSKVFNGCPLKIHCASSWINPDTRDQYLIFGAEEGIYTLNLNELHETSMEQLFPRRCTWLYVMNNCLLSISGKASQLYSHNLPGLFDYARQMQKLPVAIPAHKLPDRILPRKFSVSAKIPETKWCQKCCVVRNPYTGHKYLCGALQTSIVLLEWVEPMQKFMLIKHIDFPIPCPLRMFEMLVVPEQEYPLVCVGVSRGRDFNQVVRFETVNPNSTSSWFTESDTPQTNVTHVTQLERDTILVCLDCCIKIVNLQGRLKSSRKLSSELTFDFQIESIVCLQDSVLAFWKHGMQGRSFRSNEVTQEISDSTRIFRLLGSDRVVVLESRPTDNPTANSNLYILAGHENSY
The settings on record: for logFC: MAP4K3 Q8IVH8; for logFC MAP4K3: MAP4K3 Q81VH8.

In test [3] the target is protein kinases (human kinome) (Homo sapiens, UniProt Q92918).
The target of test [4] is protein kinases (human kinome) (Homo sapiens, UniProt O94921). The settings on record: for logFC: CDK14 (O94921-1).
The target in test [5] is T2, protein kinases (human kinome) (Homo sapiens, UniProt Q9NRH2).
T2 sequence (Q9NRH2 1-765): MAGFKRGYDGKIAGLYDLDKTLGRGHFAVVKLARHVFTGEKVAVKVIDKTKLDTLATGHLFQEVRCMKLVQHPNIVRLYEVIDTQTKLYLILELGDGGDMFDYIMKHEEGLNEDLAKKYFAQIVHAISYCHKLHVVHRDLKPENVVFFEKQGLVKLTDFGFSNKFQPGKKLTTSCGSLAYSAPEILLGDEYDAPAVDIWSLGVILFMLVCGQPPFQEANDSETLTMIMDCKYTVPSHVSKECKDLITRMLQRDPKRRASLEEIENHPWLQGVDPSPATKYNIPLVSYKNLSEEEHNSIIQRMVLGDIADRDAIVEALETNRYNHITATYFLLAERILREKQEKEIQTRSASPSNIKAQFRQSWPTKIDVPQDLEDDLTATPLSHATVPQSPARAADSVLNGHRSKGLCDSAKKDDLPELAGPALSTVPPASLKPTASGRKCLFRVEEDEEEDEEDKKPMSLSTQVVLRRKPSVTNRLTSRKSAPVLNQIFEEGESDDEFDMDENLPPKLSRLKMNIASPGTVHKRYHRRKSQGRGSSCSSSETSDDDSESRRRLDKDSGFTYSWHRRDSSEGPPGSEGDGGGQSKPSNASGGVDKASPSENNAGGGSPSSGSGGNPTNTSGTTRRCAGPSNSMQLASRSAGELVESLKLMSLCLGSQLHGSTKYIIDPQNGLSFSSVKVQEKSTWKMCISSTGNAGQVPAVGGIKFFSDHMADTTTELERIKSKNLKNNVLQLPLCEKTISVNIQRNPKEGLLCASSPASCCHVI
The settings on record: for logFC: SNRK (Q9NRH2).

Test [6] has as its target protein kinases (human kinome) (Homo sapiens, UniProt Q7KZI7).
Test [7] deals with protein kinases (human kinome) (Homo sapiens, UniProt P00519).
Where [8] appears, read: experiment wp103, direction down.

SMILES strings stand for the structures. Where two headings read alike, the source gives them in different places.

Sequence of protein kinases (human kinome) (Homo sapiens, UniProt O94921) (O94921 whole entry): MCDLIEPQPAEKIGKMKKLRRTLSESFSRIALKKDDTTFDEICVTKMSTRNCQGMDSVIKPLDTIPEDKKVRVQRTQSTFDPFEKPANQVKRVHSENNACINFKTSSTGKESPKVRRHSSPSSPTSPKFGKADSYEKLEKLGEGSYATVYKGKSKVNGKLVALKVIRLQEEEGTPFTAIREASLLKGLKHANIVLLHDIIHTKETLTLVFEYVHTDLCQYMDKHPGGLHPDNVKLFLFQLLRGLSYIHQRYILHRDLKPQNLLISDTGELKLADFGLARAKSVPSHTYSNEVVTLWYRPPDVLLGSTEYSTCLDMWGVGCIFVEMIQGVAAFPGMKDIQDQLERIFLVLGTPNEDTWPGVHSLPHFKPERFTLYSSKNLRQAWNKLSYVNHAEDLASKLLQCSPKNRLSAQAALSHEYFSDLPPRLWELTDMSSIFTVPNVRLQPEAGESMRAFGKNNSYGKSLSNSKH
Sequence of protein kinases (human kinome) (Homo sapiens, UniProt O94804) (O94804 whole entry): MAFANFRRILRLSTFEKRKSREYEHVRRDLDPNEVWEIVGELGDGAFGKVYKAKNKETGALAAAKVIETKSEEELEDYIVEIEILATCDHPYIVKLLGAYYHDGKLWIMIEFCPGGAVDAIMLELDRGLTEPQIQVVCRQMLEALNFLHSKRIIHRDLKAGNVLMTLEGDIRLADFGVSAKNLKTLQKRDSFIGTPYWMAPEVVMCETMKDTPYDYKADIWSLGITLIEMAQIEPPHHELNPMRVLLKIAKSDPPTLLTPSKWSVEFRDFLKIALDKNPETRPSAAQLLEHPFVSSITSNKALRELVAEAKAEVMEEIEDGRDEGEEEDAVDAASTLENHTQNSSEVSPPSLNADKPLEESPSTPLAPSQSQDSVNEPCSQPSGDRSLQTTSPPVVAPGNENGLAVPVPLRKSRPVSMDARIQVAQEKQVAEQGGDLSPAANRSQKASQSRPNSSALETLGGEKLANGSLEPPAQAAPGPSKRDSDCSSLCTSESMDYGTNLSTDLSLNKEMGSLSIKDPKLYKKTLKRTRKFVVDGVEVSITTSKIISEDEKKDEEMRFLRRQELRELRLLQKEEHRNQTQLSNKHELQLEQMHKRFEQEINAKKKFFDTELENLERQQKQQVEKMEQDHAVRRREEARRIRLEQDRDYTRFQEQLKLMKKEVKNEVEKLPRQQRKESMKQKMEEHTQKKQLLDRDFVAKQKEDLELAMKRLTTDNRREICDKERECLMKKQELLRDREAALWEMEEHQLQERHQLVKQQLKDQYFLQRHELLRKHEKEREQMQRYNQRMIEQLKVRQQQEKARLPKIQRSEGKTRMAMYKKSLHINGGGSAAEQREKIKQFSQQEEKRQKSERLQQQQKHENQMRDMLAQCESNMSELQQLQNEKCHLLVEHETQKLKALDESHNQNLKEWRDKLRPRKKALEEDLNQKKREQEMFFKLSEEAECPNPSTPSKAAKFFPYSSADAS
Sequence of protein kinases (human kinome) (Homo sapiens, UniProt Q7KZI7) (Q7KZI7 whole entry): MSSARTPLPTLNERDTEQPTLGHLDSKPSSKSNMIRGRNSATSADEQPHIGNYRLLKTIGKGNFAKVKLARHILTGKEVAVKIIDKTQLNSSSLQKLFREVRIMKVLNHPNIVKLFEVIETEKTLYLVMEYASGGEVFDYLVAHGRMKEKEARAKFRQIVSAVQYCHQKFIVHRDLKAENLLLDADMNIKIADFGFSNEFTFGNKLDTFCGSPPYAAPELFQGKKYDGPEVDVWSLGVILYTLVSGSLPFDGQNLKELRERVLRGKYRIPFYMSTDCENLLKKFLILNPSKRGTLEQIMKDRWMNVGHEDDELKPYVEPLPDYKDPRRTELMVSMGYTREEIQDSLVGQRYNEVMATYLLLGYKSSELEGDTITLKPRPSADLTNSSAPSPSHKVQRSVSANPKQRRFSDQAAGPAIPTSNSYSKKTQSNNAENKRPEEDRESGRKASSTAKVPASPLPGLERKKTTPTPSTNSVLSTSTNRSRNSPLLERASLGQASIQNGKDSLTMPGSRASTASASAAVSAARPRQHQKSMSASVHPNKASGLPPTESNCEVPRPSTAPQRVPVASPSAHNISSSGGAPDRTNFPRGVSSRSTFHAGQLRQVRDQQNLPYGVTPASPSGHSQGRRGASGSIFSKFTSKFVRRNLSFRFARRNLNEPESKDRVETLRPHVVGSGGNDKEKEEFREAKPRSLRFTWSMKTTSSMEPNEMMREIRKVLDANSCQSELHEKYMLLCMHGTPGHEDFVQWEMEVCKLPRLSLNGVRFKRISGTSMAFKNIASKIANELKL
Sequence of protein kinases (human kinome) (Homo sapiens, UniProt Q92918) (Q92918 whole entry): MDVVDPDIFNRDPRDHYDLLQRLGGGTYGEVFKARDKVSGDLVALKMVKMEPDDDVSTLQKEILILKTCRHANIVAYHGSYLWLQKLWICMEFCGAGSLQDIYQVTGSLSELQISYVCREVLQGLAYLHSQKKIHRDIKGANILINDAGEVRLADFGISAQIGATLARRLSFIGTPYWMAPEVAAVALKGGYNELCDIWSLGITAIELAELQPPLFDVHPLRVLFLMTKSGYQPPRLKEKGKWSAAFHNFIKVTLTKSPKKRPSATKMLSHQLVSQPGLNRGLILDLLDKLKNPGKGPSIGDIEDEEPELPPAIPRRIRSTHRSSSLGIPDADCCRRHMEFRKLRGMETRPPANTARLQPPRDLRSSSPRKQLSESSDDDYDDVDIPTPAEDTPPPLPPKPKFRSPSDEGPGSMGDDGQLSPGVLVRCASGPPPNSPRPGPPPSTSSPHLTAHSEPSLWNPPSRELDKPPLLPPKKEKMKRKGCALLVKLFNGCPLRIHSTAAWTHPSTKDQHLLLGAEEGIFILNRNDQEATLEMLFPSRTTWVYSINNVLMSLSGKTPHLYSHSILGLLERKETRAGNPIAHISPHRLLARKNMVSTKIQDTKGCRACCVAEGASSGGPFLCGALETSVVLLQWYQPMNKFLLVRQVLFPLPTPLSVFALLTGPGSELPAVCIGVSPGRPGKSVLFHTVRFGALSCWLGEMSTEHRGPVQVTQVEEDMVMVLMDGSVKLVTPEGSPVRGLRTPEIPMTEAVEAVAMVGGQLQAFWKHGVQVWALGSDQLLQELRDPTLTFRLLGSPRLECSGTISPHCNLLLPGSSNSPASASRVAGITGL
Sequence of protein kinases (human kinome) (Homo sapiens, UniProt P00519) (P00519 whole entry): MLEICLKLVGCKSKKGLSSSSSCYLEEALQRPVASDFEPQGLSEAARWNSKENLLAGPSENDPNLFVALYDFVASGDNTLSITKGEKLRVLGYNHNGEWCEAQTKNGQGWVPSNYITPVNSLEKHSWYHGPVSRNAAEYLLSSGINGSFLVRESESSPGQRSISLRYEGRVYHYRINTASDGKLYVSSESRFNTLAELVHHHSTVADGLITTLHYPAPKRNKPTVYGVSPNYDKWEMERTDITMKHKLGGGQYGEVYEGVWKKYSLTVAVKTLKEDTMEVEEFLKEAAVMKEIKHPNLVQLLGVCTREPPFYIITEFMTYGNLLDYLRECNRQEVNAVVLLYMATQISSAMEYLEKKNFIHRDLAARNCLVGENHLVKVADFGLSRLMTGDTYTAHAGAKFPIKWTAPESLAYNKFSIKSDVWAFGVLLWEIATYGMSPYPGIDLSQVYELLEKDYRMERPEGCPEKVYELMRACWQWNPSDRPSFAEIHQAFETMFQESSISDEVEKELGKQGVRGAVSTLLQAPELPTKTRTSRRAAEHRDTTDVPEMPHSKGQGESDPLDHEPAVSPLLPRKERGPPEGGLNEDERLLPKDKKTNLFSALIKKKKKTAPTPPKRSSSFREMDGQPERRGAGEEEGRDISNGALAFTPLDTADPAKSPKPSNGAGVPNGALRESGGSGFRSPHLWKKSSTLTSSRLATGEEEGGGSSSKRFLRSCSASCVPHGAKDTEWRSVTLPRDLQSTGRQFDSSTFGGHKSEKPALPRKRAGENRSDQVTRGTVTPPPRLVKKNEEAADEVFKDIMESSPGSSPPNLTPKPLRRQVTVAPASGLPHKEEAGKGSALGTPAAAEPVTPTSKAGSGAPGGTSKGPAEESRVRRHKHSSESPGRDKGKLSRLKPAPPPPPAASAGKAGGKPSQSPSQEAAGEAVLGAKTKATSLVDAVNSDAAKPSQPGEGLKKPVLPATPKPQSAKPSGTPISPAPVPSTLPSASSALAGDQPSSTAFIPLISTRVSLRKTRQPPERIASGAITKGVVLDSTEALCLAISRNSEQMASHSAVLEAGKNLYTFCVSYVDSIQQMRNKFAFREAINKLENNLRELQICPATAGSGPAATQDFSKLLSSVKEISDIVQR

Consider `CC(C)S(=O)(=O)c1ccccc1Nc1nc(Nc2ccc(N3CCN(CCOCCOCCNC(=O)CNc4cccc5c4C(=O)N(C4CCC(=O)NC4=O)C5=O)CC3)cc2)ncc1Cl` (stereo not drawn) [TL12.186], for which the logFC in test [1] (experiment wp016) is listed as −0.3819; in test [1] (experiment wp016, direction down), −0.3819; in test [2] (experiment wp131), −0.6275; in test [2] (experiment wp137), −0.3997. For the same compound, the “logFC MAP4K3” value is given as −0.6275 in test [2] (experiment wp131) and −0.3997 in test [2] (experiment wp137). Further, the “logFC MAP4K1 (Q92918)” value is on record as −0.4581 in test [3] (experiment wp131) and −0.6136 in test [3] (experiment wp137).

With `O=C1CCC(N2C(=O)c3cccc(NCCCCCCCCN4CCC(NC(=O)c5[nH]ncc5NC(=O)c5c(Cl)cccc5Cl)CC4)c3C2=O)C(=O)N1` (stereo not drawn) [MFH.5.126.1], in test [4] (experiment wp076), the logFC is given as −0.3413 and the “logFC of CDK14 (O94921-1)” value is −0.3413.

Consider `Cc1cnc(Nc2ccc(N3CCN(CCCCCCC(=O)N[C@H](C(=O)N4C[C@H](O)C[C@H]4C(=O)N[C@@H](C)c4ccc(-c5scnc5C)cc4)C(C)(C)C)CC3)cc2)nc1Nc1cccc(S(=O)(=O)NC(C)(C)C)c1` [JWG.123], for which the “logFC of SNRK (Q9NRH2)” value in test [5] (Experiment wp195) was −1.197. For the same compound, the logFC in test [5] (experiment wp195) is reported as −1.197.

On to `Cc1ncsc1-c1ccc([C@H](C)NC(=O)[C@@H]2C[C@@H](O)CN2C(=O)[C@@H](NC(=O)CCOCCOCCN2CCN(c3ccc(Nc4ncc(Cl)c(Nc5ccccc5S(=O)(=O)C(C)C)n4)cc3)CC2)C(C)(C)C)cc1` [FMF.06.098.1], for which the logFC in test [2] (experiment wp108) is −0.814; in test [2] (experiment wp114) it was −0.4146; in test [2] (experiment wp131) it was −0.7898. Moreover, the “logFC MAP4K3” value was −0.814 in test [2] (experiment wp108), −0.4146 in test [2] (experiment wp114) and −0.7898 in test [2] (experiment wp131).

As for `Cc1ccc(NC(=O)c2cccc(C(F)(F)F)c2)cc1N1Cc2cnc(Nc3ccc(N4CCN(Cc5cn(CCCCCOc6cccc7c6C(=O)N(C6CCC(=O)NC6=O)C7=O)nn5)CC4)nc3)nc2N(C)C1=O` (stereo not drawn) [DB0646, N-(3-(7-((6-(4-((1-(5-((2-(2,6-Dioxopiperidin-3-yl)-1,3-dioxoisoindolin-4-yl)oxy)pentyl)-1H-1,2,3-triazol-4-yl)methyl)piperazin-1-v)pyridin-3-yl)amino)-1-methyl-2-oxo-1,4-dihydropyrimido[4,5-d]pyrimidin-3(2H)-yl)-4-methylphenyl)-3-(trifluoromethyl)benzamide], the “logFC MAP4K1 (Q92918)” value is −0.4789 in test [3] (experiment wp045); −0.3638 in test [3] (experiment wp152); −0.3228 in test [3] (experiment wp160, 4 hr); −0.5785 in test [3] (experiment wp160, 8 hr).

Turning to `Cc1ncsc1-c1ccc([C@H](C)NC(=O)[C@@H]2C[C@@H](O)CN2C(=O)[C@@H](NC(=O)CCCCCN2CCc3cc(Nc4ncc(C5CC5)c(NCCCNC(=O)C5CCC5)n4)ccc3C2)C(C)(C)C)cc1` [BSJ.05.026], the logFC is given as −1.239 in test [6] (MARK2 (Q7KZI7-1), experiment wp195, direction down); −1.239 in test [6] (MARK2 Q7KZI7-1, experiment wp195); −1.856 in test [5] (experiment wp195). Moreover, in test [5] (Experiment wp195), the “logFC of SNRK (Q9NRH2)” value is on record as −1.856.

For `Cc1ccc(NC(=O)c2cccc(C(F)(F)F)c2)cc1N1Cc2cnc(Nc3ccc(N4CCN(CCCOc5cccc6c5C(=O)N(C5CCC(=O)NC5=O)C6=O)CC4)nc3)nc2N(C)C1=O` (stereo not drawn) [DB0662], the “logFC of ABL1 (P00519)” value in test [7] (Experiment wp168) is recorded as −0.7617. Also, in test [7] (experiment wp168), the “logFC ABL1 (P00519)” value was −0.7617. Also, in test [3] (experiment wp168), the “logFC MAP4K1 (Q92918)” value is recorded as −0.4067.

With `Cc1ccc(C(=O)Nc2ccc(CN3CCN(CCCOCCOCCOCCNC(=O)COc4cccc5c4C(=O)N(C4CCC(=O)NC4=O)C5=O)CC3)c(C(F)(F)F)c2)cc1C#Cc1cnc2cccnn12` (stereo not drawn) [SB1.G.187], the logFC in test [1] (experiment wp103) is −0.3374; in test [1] (setting [8]), −0.3374; in test [4] (experiment wp172) it was −1.525. Further, in test [4] (Experiment wp172), the “logFC of CDK14 (O94921-1)” value was −1.525.

On to `Nc1ncc(-c2ccc(S(=O)(=O)N(CCCNC(=O)CCOCCOCCOCCOCCOCCNc3cccc4c3C(=O)N(C3CCC(=O)NC3=O)C4=O)C3CC3)cc2)cc1-c1ccc2c(c1)CCNC2=O` (stereo not drawn) [WH.10417.099], for which the logFC in test [1] (experiment wp056) was −0.4923; in test [1] (experiment wp056, direction down), −0.4923; in test [1] (experiment wp103), −0.4751; in test [1] (setting [8]) it was −0.4751; in test [1] (experiment wp107), −0.5661; in test [1] (experiment wp107, direction down), −0.5661.

Regarding `O=C(COc1cccc2c1C(=O)N(C1CCC(=O)NC1=O)C2=O)NCCCCCCCN1CCc2cc(Nc3ncc(C4CC4)c(NCCCNC(=O)C4CCC4)n3)ccc2C1` (stereo not drawn) [BSJ.04.178], the logFC is listed as −0.9686 in test [6] (MARK2 (Q7KZI7-1), experiment wp134, direction down); −0.9686 in test [6] (MARK2 Q7KZI7-1, experiment wp134); −1.523 in test [5] (experiment wp134). The “logFC of SNRK (Q9NRH2)” value in test [5] (experiment wp134) was −1.523.

As for `CC(C)S(=O)(=O)c1ccccc1Nc1nc(Nc2ccc(N3CCN(CCOCCOCCC(=O)NCCNc4cccc5c4CN(C4CCC(=O)NC4=O)C5=O)CC3)cc2)ncc1Cl` (stereo not drawn) [TL13.97], the logFC in test [1] (experiment wp137) is −0.3477; in test [1] (experiment wp137, direction down), −0.3477.

On to `Cc1ncsc1-c1ccc([C@H](C)NC(=O)[C@@H]2C[C@@H](O)CN2C(=O)[C@@H](NC(=O)CCCCCN2CCN(c3ccc(Nc4ncc5scc(-c6cccc(NS(C)(=O)=O)c6)c5n4)cc3)CC2)C(C)(C)C)cc1` [RSS0680, (2S,4R)-1-((S)-3,3-Dimethyl-2-(6-(4-(4-((7-(3-(methylsulfonamido)phenyl)thieno[3,2-d]pyrimidin-2-yl)amino)phenyl)piperazin-1-yl)hexanamido)butanoyl)-4-hydroxy-N—((S)-1-(4-(4-methylthiazol-5yl)phenyl)ethyl)pyrrolidine-2-carboxamide], for which the logFC in test [6] (MARK2 (Q7KZI7-1), experiment wp117, direction down) is listed as −0.4286; in test [6] (MARK2 Q7KZI7-1, experiment wp117), −0.4286; in test [5] (experiment wp080), −0.5567; in test [5] (experiment wp117) it was −0.6321. The “logFC of SNRK (Q9NRH2)” value in test [5] (Experiment wp117) is recorded as −0.6321; in test [5] (experiment wp080) it was −0.5567.

The values are drawn from patent US20240269139A1, “COMPOUNDS FOR TARGETED PROTEIN DEGRADATION OF KINASES” (DANA-FARBER CANCER INSTITUTE, INC., priority 2020, published 2024).
